Assay results as given in US3956279A, “Crystalline pivaloyloxymethyl d(-)-α-aminobenzylpenicillinate” (priority 1973, dated 1976).
Values after ≈ are worked out from the molar mass of the structure shown. Where a name gives a salt, the structure may show the parent alone. Read-outs that look alike come from different tables or passages of the source. Blank lines part the entries; values can stand above or below the molecule they belong to.

Experiments:
[1] = salts of pivampicillin, cited from earlier work
[2] = Density of crystalline pivampicillin compared with its salts; type: physicochemical; conditions: crystalline pivampicillin versus its salts
[3] = chemical substance pivampicillin, under certain conditions; cited from earlier work
[4] = Stability of crystalline pivampicillin and of the preparation of Example 20 (chemical analyses); type: physicochemical; conditions: crystalline pivampicillin in medical preparations
Method: Thus the preparation, the formulation of which is described in Example 20 of the present Specification, had according to chemical analyses a stability corresponding to a decrease in activity in the order of 5% over a 2 years period when stored at 20°C and a relative humidity of 40%.

[5] = set-up: species or system healthy volunteers (adults); conditions: human, in vivo
Method: The above preparation was given to five healthy volunteers (adults), and as will appear from Table II below, gave rise to high serum concentrations and a high urinary recovery, as expressed below in terms of serum concentrations and urinary excretion, respectively.
SERUM CONCENTRATIONS (mcg per ml) AND URINARY EXCRETION
(in per cent of dose administered) OF AMPICILLIN IN FIVE
HEALTHY VOLUNTEERS (ADULTS) FOLLOWING ORAL ADMINISTRATION
OF 10 ml OF "PIVAMPICILLIN ORAL SUSPENSION" CONTAINING
PIVAMPICILLIN BASE CORRESPONDING TO 250 mg AMPICILLIN

[6] = Solubilities at room temperature (about 25°C) in various solvents; type: physicochemical

Compound: CC(C)(C)C(=O)OCOC(=O)[C@@H]1N2C(=O)[C@@H](NC(=O)[C@H](N)c3ccccc3)[C@H]2SC1(C)C
Solubility of salt in water (in words) [1]: slightly soluble in water

Compound: CC(C)(C)C(=O)OCOC(=O)[C@@H]1N2C(=O)[C@@H](NC(=O)[C@H](N)c3ccccc3)[C@H]2SC1(C)C [hydrochloride, pivaloyloxymethyl D(-)-α-aminobenzylpenicillinate, hydrochloride]
Solubility of salt in water (in words) ([1]; hydrochloride): readily soluble in water

Density [2]: higher density than its salts
Stability (in words) [4]: stable compound
Absorption (in words) [5]: excellent absorption
Solubility in water (in words) ([6]; crystalline pivampicillin): extremely low solubility in water
Stability in methanol ([6]; methanol, room temperature (about 25°C)): destruction
solubility ([6]; organic solvent or mixture, acetonitrile, room temperature (about 25°C), read-out: Solubility in acetonitrile): 450000 µg/mL (≈ 971 mM)
solubility ([6]; organic solvent or mixture, cyclohexane, room temperature (about 25°C), read-out: Solubility in cyclohexane): 150 µg/mL (≈ 0.324 mM)
solubility ([6]; organic solvent or mixture, ethanol, room temperature (about 25°C), read-out: Solubility in ethanol): 40000 µg/mL (≈ 86.3 mM)
solubility ([6]; organic solvent or mixture, ether, room temperature (about 25°C), read-out: Solubility in ether): 10000 µg/mL (≈ 21.6 mM)
solubility ([6]; organic solvent or mixture, isopropanol, room temperature (about 25°C), read-out: Solubility in isopropanol): 12000 µg/mL (≈ 25.9 mM)
solubility ([6]; organic solvent or mixture, isopropylether, room temperature (about 25°C), read-out: Solubility in isopropylether): 1000 µg/mL (≈ 2.16 mM)
solubility ([6]; organic solvent or mixture, light petroleum (bp. 60-80°C), room temperature (about 25°C), read-out: Solubility in light petroleum): 20 µg/mL (≈ 0.0431 mM)
solubility ([6]; organic solvent or mixture, methanol, room temperature (about 25°C), (destruction), read-out: Solubility in methanol): > 500000 µg/mL
solubility ([6]; water, room temperature (about 25°C), read-out: Solubility in water): 100 µg/mL (≈ 0.216 mM)
Compound: CC(C)(C)C(=O)OCOC(=O)[C@@H]1N2C(=O)[C@@H](NC(=O)[C@H](N)c3ccccc3)[C@H]2SC1(C)C [pivampicillin, pivaloyloxymethyl D(-)-α-aminobenzylpenicillinate]
Tendency to polymerize [3]: apt to polymerize
